According to ChEMBL document CHEMBL5506003, “Design and biological evaluation of dual tubulin/HDAC inhibitors based on millepachine for treatment of prostate cancer” (Eur J Med Chem, 2024):
pIC50: −log10 of the molar value. Active and inactive are the calls of the source. No cut-off for these calls is given here.

What was measured:
[1] = biological target: Histone deacetylase 3 (Homo sapiens) (UniProt O15379); assay: Inhibition of HDAC3 in human PC-3 cells assessed as increase in acetylated Histone-H3 level incubated for 24 hrs by Western blotting assay; type: cell-based; conditions: dose 0.08-0.32 µM
PC-3 [2] = assay: Induction of apoptosis in human PC-3 cells assessed as necrotic cells at 0.32 uM incubated for 24 hrs by Annexin V-FITC and PI staining based flow cytometry (reference value: 0.13%); type: functional
PC-3 [3] = assay: Induction of apoptosis in human PC-3 cells assessed as viable cells at 0.08 uM incubated for 24 hrs by Annexin V-FITC and PI staining based flow cytometry (reference value: 97.5%); type: functional; conditions: read-out: Activity
PC-3 [4] = assay: Induction of mitochondrial membrane potential loss in human PC-3 cells assessed as increase in monomer JC-1 level by measuring green fluorescence intensity at 0.32 uM incubated for 24 hrs by JC-1 staining based flow cytometry analysis (reference value: 6.44%); type: functional
PC-3 [5] = assay: Induction of apoptosis in human PC-3 cells assessed as viable cells at 0.32 uM incubated for 24 hrs by Annexin V-FITC and PI staining based flow cytometry (reference value: 97.5%); type: functional; conditions: read-out: Activity
PC-3 [6] = assay: Induction of mitochondrial membrane potential loss in human PC-3 cells assessed as increase in monomer JC-1 level by measuring green fluorescence intensity at 0.16 uM incubated for 24 hrs by JC-1 staining based flow cytometry analysis (reference value: 6.44%); type: functional
[7] = MRT(0 to t) in Sprague-Dawley rat at 2 mg/kg, iv measured upto 24 hrs by HPLC-MS analysis; type: ADME, organism-based; conditions: in vivo
Tubulin (Homo sapiens) = Tubulin (Homo sapiens) (UniProt P68371+Q9H4B7+P0DPH7+P68366+Q13509+Q71U36+P04350+Q3ZCM7+P07437+P68363+Q9BQE3+Q6PEY2+Q13885+Q9BVA1+Q9BUF5); assay: Inhibition of microtubule polymerization in human PC-3 cells assessed as disorganized microtubule filaments at 0.32 uM incubated for 6 hrs by immunofluorescent staining based confocal microscopy assay; type: cell-based
PC-3 [8] = assay: Induction of cell cycle arrest in human PC-3 cells assessed as G2/M phase cells at 0.08 uM incubated for 24 hrs by PI staining based flow cytometry analysis (reference value: 12.83%); type: functional
Histone deacetylase 2 = Histone deacetylase 2 (Homo sapiens, UniProt Q92769); assay: Inhibition of HDAC2 in human PC-3 cells assessed as increase in acetylated Histone-H3 level incubated for 24 hrs by Western blotting assay; type: cell-based; conditions: dose 0.08-0.32 µM
PC-3 [9] = assay: Induction of mitochondrial membrane potential loss in human PC-3 cells assessed as decrease in JC-1 aggregate level by measuring red fluorescence intensity at 0.08 uM incubated for 24 hrs by JC-1 staining based flow cytometry analysis (reference value: 93.5%); type: functional; set-up: scale not given: the % may be the effect or the level left
[10] = Toxicity in BALB/c nude mouse xenografted with human PC-3 cells assessed as kidney damage at 10 to 20 mg/kg, iv administered every 2 days and measured after 3 weeks; type: organism-based; conditions: in vivo, 504 h, dose 10-20 mg/kg
[11] = Volume of distribution at steady state in Sprague-Dawley rat at 2 mg/kg, iv measured upto 24 hrs by HPLC-MS analysis; type: ADME, organism-based; conditions: in vivo, read-out: Vdss
PC-3 [12] = assay: Induction of apoptosis in human PC-3 cells assessed as downregulation of Bcl-2 expression at 0.08 to 0.32 uM by Western blotting analysis; type: functional, cell-based; conditions: dose 0.08-0.32 µM
PC-3 [13] = assay: Induction of apoptosis in human PC-3 cells assessed as downregulation of Bim expression at 0.08 to 0.32 uM by Western blotting analysis; type: functional, cell-based; conditions: dose 0.08-0.32 µM
PC-3 [14] = assay: Antitumor activity against human PC-3 cells xenografted in iv dosed BALB/c nude mouse assessed as tumor growth inhibition administered every 2 days and measured after 3 weeks; type: functional, organism-based; conditions: dose 10-20 mg/kg
PC-3 [15] = assay: Induction of cell cycle arrest in human PC-3 cells assessed as G2/M phase cells at 0.16 uM incubated for 24 hrs by PI staining based flow cytometry analysis (reference value: 12.83%); type: functional
MDA-MB-231 = assay: Cytotoxicity against human MDA-MB-231 cells incubated for 72 hrs by MTT assay; type: functional, cell-based; conditions: MDA-MB-231, 72 h
A549 = assay: Cytotoxicity against human A549 cells incubated for 72 hrs by MTT assay; conditions: A549, 72 h
PC-3 [16] = assay: Induction of apoptosis in human PC-3 cells assessed as necrotic cells at 0.16 uM incubated for 24 hrs by Annexin V-FITC and PI staining based flow cytometry (reference value: 0.13%); type: functional
PC-3 [17] = assay: Induction of apoptosis in human PC-3 cells assessed as necrotic cells at 0.08 uM incubated for 24 hrs by Annexin V-FITC and PI staining based flow cytometry (reference value: 0.13%); type: functional
PC-3 [18] = assay: Induction of mitochondrial membrane potential loss in human PC-3 cells assessed as increase in monomer JC-1 level by measuring green fluorescence intensity at 0.08 uM incubated for 24 hrs by JC-1 staining based flow cytometry analysis (reference value: 6.44%); type: functional
PC-3 [19] = assay: Induction of cell cycle arrest in human PC-3 cells assessed as S phase cells at 0.08 uM incubated for 24 hrs by PI staining based flow cytometry analysis (reference value: 31.7%); type: functional
[20] = Toxicity in BALB/c nude mouse xenografted with human PC-3 cells assessed as heart damage at 10 to 20 mg/kg, iv administered every 2 days and measured after 3 weeks; type: organism-based; conditions: in vivo, 504 h, dose 10-20 mg/kg
U-251 = assay: Cytotoxicity against human U-251 cells incubated for 72 hrs by MTT assay; conditions: U-251, 72 h
PC-3 [21] = assay: Induction of ROS generation in human PC-3 cells at 0.08 uM incubated for 24 hrs by DCFH-DA staining based flow cytometry analysis (reference value: 2.63%); type: functional
PC-3 [22] = assay: Induction of apoptosis in human PC-3 cells assessed as late apoptotic cells at 0.08 uM incubated for 24 hrs by Annexin V-FITC and PI staining based flow cytometry (reference value: 1.02%); type: functional
[23] = AUC(0 to t) in Sprague-Dawley rat at 2 mg/kg, iv measured upto 24 hrs by HPLC-MS analysis; type: ADME, organism-based; conditions: in vivo
[24] = Toxicity in BALB/c nude mouse xenografted with human PC-3 cells assessed as spleen damage at 10 to 20 mg/kg, iv administered every 2 days and measured after 3 weeks; type: organism-based; conditions: in vivo, 504 h, dose 10-20 mg/kg
HUVEC = assay: Anti-angiogenesis activity against HUVECs assessed as reduction in capillary like tubules at 0.1 to 1.6 uM incubated for 6 hrs by matrigel based microscopic analysis; type: functional, cell-based; conditions: Homo sapiens, dose 0.1-1.6 µM
PC-3 [25] = assay: Induction of cell cycle arrest in human PC-3 cells assessed as increase in cyclin B1 level at 0.08 to 0.32 uM by Western blotting analysis; type: functional, cell-based; conditions: dose 0.08-0.32 µM
PC-3 [26] = assay: Induction of ROS generation in human PC-3 cells at 0.16 uM incubated for 24 hrs by DCFH-DA staining based flow cytometry analysis (reference value: 2.63%); type: functional
PC-3 [27] = assay: Induction of mitochondrial membrane potential loss in human PC-3 cells assessed as decrease in JC-1 aggregate level by measuring red fluorescence intensity at 0.16 uM incubated for 24 hrs by JC-1 staining based flow cytometry analysis (reference value: 93.5%); type: functional; set-up: scale not given: the % may be the effect or the level left

Histone deacetylase 3 (Homo sapiens), sequence (O15379 whole entry): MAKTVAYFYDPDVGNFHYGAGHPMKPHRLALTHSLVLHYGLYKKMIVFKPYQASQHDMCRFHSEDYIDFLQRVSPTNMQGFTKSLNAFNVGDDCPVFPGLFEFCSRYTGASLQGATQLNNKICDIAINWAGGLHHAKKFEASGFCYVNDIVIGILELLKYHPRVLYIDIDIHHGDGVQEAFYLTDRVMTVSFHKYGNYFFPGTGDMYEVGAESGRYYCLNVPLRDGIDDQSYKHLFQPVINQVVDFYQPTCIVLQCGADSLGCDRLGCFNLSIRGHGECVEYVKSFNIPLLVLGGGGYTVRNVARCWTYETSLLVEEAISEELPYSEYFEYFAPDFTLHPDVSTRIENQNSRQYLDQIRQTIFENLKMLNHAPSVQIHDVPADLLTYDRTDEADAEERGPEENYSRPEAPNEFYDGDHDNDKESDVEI
Histone deacetylase 2, sequence (Q92769 whole entry): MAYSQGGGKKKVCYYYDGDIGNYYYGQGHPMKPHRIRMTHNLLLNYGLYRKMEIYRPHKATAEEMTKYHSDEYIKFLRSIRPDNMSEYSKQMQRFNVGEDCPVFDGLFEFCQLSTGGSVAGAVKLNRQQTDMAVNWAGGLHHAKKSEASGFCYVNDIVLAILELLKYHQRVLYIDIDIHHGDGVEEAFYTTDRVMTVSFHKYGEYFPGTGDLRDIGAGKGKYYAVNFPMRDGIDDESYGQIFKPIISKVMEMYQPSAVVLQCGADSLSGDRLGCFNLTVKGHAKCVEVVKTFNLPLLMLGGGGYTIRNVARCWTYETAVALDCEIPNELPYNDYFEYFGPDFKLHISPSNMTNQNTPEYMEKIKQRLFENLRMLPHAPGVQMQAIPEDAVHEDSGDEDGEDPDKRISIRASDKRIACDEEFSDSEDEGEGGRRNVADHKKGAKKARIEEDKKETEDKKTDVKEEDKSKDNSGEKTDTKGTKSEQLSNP

Question: What does the source list for `COc1ccc(/C=C/C(=O)c2ccc(OC)c3c2OC(C)(C)C=C3)cc1NCC(=O)NO`?
Answer: inhibition [1]: Dose-Dependent Effect; Activity (PC-3 [2]): 0.19%; viability at 0.08 µM (PC-3 [3]): 94.8%; Activity (PC-3 [4]): 38.8%; viability at 0.32 µM (PC-3 [5]): 27.6%; Activity (PC-3 [6]): 20.7%; MRT last at 24 h [7]: 1.32 h; inhibition (Tubulin (Homo sapiens)): Active; Activity (PC-3 [8]): 25.45%; inhibition (Histone deacetylase 2): Dose-Dependent Effect; Activity (PC-3 [9]): 88.4%; Activity [10]: Non-Toxic; Vd [11]: 0.42 L/kg; Activity (PC-3 [12]): Active; Activity (PC-3 [13]): Active; Activity (PC-3 [14]): Dose-Dependent Effect; Activity (PC-3 [15]): 50.56%; pIC50 (MDA-MB-231): 6.47; pIC50 (A549): 6.54; Activity (PC-3 [16]): 0.47%; Activity (PC-3 [17]): 0.041%; Activity (PC-3 [18]): 10.6%; Activity (PC-3 [19]): 39.9%; Activity [20]: Non-Toxic; pIC50 (U-251): 6.82; Activity (PC-3 [21]): 45.7%; Activity (PC-3 [22]): 2.59%; AUCt [23]: 9084 µg/L/h; Activity [24]: Non-Toxic; Activity (HUVEC): Active; Activity (PC-3 [25]): Active; Activity (PC-3 [26]): 75.4%; Activity (PC-3 [27]): 77.9%
